{"source": "paper PMC4094517", "about": "“Structural Analysis and Mutant Growth Properties Reveal Distinctive Enzymatic and Cellular Roles for the Three Major L-Alanine Transaminases of Escherichia coli” (PLoS ONE, 2014)", "key": {"AlaA": {"biological_target": "T1, AlaA (Escherichia coli, UniProt P0A959)", "T1 construct": "full length, 405 residues, N-terminal His6-TEV tag kept (pETM11, pAlaA), expressed in E. coli BL21(DE3), homodimer about 90 kDa", "experiment": "X-ray crystal structure, […] Å", "type": "binding", "details": "covalent (internal aldimine, Schiff base with Lys240); acetate from crystallisation solution also in active site; crystals in 0.25 M lithium acetate, 22% PEG 3350, 20 °C"}, "[1]": {"biological_target": "the molecule itself", "experiment": "SEC; Superdex 200 10/300 GL after HisTrap, 4°C; elution mass estimated"}}}
{"molecule": "Cc1ncc(COP(=O)(O)O)c(C=O)c1O", "note": "[PLP]", "values": [{"measurement": "X-ray crystal structure, 2.11 Å", "setting": "AlaA", "result": "An intact Schiff base linkage between Lys240 and PLP"}]}
{"molecule": "His-tagged AlaA (alanine aminotransferase AlaA of Escherichia coli) (enzyme, UniProt P0A959 1-405, looked up, Lys240 in Schiff base linkage with pyridoxal 5'-phosphate (LLP, Lys-PLP), AlaA, alanine aminotransferase (glutamic-pyruvic transaminase), Escherichia coli, 405-amino-acid monomer; alaA amplified from E. coli XL1-Blue genomic DNA into pETM11; pETM11 adds an N-terminal hexahistidine tag and a TEV protease cleavage site; Modelled residues 1-404 (chain A) and 2-405 (chain B); also called full-length AlaA; His6-AcTev-AlaA; source: E. coli BL21(DE3), purified (HisTrap, …)) MSPIEKSSKLENVCYDIRGPVLKEAKRLEEEGNKVLKLNIGNPAPFGFDAPDEILVDVIRNLPTAQGYCDSKGLYSARKAIMQHYQARGMRDVTVEDIYIGNGVSELIVQAMQALLNSGDEMLVPAPDYPLWTAAVSLSSGKAVHYLCDESSDWFPDLDDIRAKITPRTRGIVIINPNNPTGAVYSKELLMEIVEIARQHNLIIFADEIYDKILYDDAEHHSIAPLAPDLLTITFNGLSKTYRVAGFRQGWMVLNGPKKHAKGYIEGLEMLASMRLCANVPAQHAIQTALGGYQSISEFITPGGRLYEQRNRAWELINDIPGVSCVKPRGALYMFPKIDAKRFNIHDDQKMVLDFLLQEKVLLVQGTAFNWPWPDHFRIVTLPRVDDIELSLSKFARFLSGYHQL", "values": [{"measurement": "stoichiometry N", "setting": "[1]", "result": 2}]}
